The source of these data is patent publication US20250262170A1, “COMBINATIONS OF BETA 2-ADRENERGIC RECEPTOR AGONISTS AND BETA 3-ADRENERGIC RECEPTOR AGONISTS, AND MEDICAL USES THEREOF” (ATROGI AB, priority 2022, published 2025).

In the first assay the target is T1, human β3-adrenergic receptor (Homo sapiens, UniProt P13945).
T1 construct: expressed in transfected cells
T1 sequence (P13945 whole entry): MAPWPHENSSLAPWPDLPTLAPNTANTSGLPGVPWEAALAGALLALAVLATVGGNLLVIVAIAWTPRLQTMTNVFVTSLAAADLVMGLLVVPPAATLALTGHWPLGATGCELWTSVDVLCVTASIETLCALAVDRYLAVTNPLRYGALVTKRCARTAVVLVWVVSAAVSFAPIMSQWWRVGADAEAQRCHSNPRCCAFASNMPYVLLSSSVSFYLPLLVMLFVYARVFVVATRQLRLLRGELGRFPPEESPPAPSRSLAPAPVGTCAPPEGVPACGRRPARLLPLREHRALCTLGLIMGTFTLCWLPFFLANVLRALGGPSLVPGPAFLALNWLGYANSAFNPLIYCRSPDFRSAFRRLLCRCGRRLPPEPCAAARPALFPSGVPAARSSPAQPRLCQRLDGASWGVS
The assay can be described thus: cAMP levels in CHO-K1 cells expressing the human β3-adrenergic receptor. The format is cell-based. The note with it: 10 μM, 15 min. On the procedure: CHO-K1 cells stably expressing the human β3-adrenergic receptors were serum-starved overnight and stimulated with an agonist, final concentration 1×10^−5 M, for 15 min in stimulation buffer (HBSS supplemented with 1% BSA, 5 mM HEPES and 1 mM IBMX, pH 7.4) The medium was then aspirated and to end the reaction, 100 μL of 95% EtOH was added to each well of the 24-well plate and cells were kept at −20° C. overnight. The next day EtOH was allowed to evaporate and 250 μL of lysis buffer (1% BSA, 5 mM HEPES and 0.3% Tween-20, pH 7.4) was added to each well. The plate was kept at −80° C. for 30 min and thawed in room temperature. Intracellular cAMP levels were detected using an alpha screen cAMP kit (6760635D from Perkin Elmer). The activity for each compound is compared to that of isoproterenol.
Consider `CC(C)(C[C@H]1CC[C@H](NS(C)(=O)=O)CC1)NC[C@H](O)c1cccc(F)c1` [Compound 45, N-((trans)-4-(2-(((R)-2-(3-fluorophenyl)-2-hydroxy-ethyl)amino)-2-methyl-propyl)cyclohexyl)methane-sulfonamide], for which the “Activity (intracellular cAMP compared to that of isoproterenol)” value was “++ (activity of more than 75% of that of isoproterenol at 10 μM)”.

Staying with this assay, now noted: CHO-K1, 0.25 h, 15 min, read-out: Activity (intracellular cAMP compared to that of isoproterenol).
`CC(=O)N[C@H]1CC[C@@H](C[C@@H]2CC[C@H]([C@H](O)c3cccc(F)c3F)N2)CC1` [Compound 1, N-((cis)-4-(((2S,5R)-5-((R)-(2,3-difluorophenyl)-(hydroxy)methyl)pyrrolidin-2-yl)methyl)cyclohexyl)-acetamide]: the Emax at 10 µM is over 75%.
In the case of `CCOCC12CCC([C@H](O)c3cncc(F)c3)(CC1)N2` [Compound 38, (R)-(4-(ethoxymethyl)-7-azabicyclo[2.2.1]heptan-1-yl)(5-fluoropyridin-3-yl) methanol], the Emax at 10 µM lay in the range of 50 to 75%.
On the same count and under the same terms, the value for `CO[C@H]1CC[C@@H](C[C@@H]2CC[C@H]([C@H](O)c3cccc(F)c3F)N2)CC1` [Compound 7, (R)-(2,3-difluorophenyl)-((2R,5S)-5-(((cis)-4-methoxycyclohexyl)methyl)-pyrrolidin-2-yl)methanol] was 50 to 75%.
Still for that read-out and setting: for `CC(C)(C[C@H]1CC[C@H](O)CC1)NC[C@H](O)c1cccc(F)c1` [Compound 52, (trans)-4-(2-(((R)-2-(3-fluorophenyl)-2-hydroxy-ethyl)amino)-2-methyl-propyl)cyclohexan-1-ol] the value was over 75%; for `CCCCNC[C@H](O)c1ccc(O)cc1` [Compound 70, (R)-4-(2-(butylamino)-1-hydroxyethyl)phenol], 50 to 75%; for `CC(C)(C[C@H]1CC[C@H](NS(=O)(=O)C2CC2)CC1)NC[C@H](O)c1cccc(F)c1` [Compound 25, N-((trans)-4-(2-(((R)-2-(3-fluorophenyl)-2-hydroxy-ethyl)amino)-2-methyl-propyl)cyclohexyl)cyclo-propanesulfonamide], over 75%.
Same read-out and setting: for `CCS(=O)(=O)N[C@H]1CC[C@H](CC(C)(C)NC[C@H](O)c2cncc(F)c2)CC1` [Compound 21, N-((trans)-4-(2-(((R)-2-(5-fluoropyridin-3-yl)-2-hydroxyethyl)amino)-2-methylpropyl)cyclohexyl)-ethanesulfonamide] the value was over 75%.
Take `COC(=O)N1CCC[C@@H](CC(C)(C)NC[C@H](O)c2cccc(F)c2)C1` [Compound 5, methyl (S)-3-(2-(((R)-2-(3-fluorophenyl)-2-hydroxy-ethyl)amino)-2-methyl-propyl)piperidine-1-carboxylate]: the Emax at 10 µM was over 75%.
Regarding `CC(C)(C[C@H]1CC[C@H](NS(C)(=O)=O)CC1)NC[C@H](O)c1ccc(F)c(N)c1F` [Compound 23, N-((trans)-4-(2-(((R)-2-(3-amino-2,4-difluorophenyl)-2-hydroxyethyl)amino)-2-methylpropyl)cyclohexyl)-methanesulfonamide], the Emax at 10 µM is over 75%.
Consider `CO[C@H]1CC[C@H](CC[C@@H]2CC[C@H]([C@H](O)c3cccc(F)c3)N2)CC1` [Compound 39, (R)-(3-fluorophenyl)((2R,5R)-5-(2-((tranbs)-4-methoxy-cyclohexyl)ethyl)pyrrolidin-2-yl)methanol], for which the Emax at 10 µM is over 75%.
The same measure, in the same setting: for `CC(C)(C[C@H]1CC[C@H](NS(C)(=O)=O)CC1)NC[C@H](O)c1cncc(F)c1` [Compound 46, N-((trans)-4-(2-(((R)-2-(5-fluoropyridin-3-yl)-2-hydroxyethyl)amino)-2-methylpropyl)cyclohexyl) methanesulfonamide] the value was over 75%; for `CC(C)(C)NC[C@H](O)c1cccc(N)c1F` [Compound 61, (R)-1-(3-amino-2-fluoro-phenyl)-2-(tert-butylamino)-ethan-1-o], over 75%; for `O[C@H](c1cncc(F)c1)C12CCC(COc3ccc(OC(F)(F)F)cc3)(CC1)N2` [Compound 32, (R)-(5-fluoropyridin-3-yl)((1r,4R)-4-((4-(trifluoro-methoxy)phenoxy)methyl)-7-azabicyclo[2.2.1]heptan-1-yl)methanol], over 75%.
As to `COCC12CC(C1)[C@H]([C@H](O)c1cccc(F)c1)N2` [Compound 29, (R)-(3-fluorophenyl)((R)-1-(methoxymethyl)-2-aza-bicyclo[2.1.1]hexan-3-yl)-methanol], the Emax at 10 µM was 50 to 75%.
Still for that read-out and setting: the value for `CO[C@H]1CC[C@@H](CC(C)(C)NC[C@H](O)c2cccc(F)c2)CC1` [Compound 53, (R)-1-(3-fluorophenyl)-2-((1-((cis)-4-methoxycyclohexyl)-2-methylpropan-2-yl)-amino)ethan-1-ol] was 50 to 75%.
Still for that read-out and setting: the value for `CC(C)(NC[C@H](O)c1cccc(F)c1)[C@H]1CC[C@H](NC(=O)c2ccccc2)CC1` [Compound 44, N-((trans)-4-(2-(((R)-2-(3-fluorophenyl)-2-hydroxy-ethyl)amino)propan-2-yl)-cyclohexyl)benzamide] was over 75%; that for `O[C@H](c1cccc(F)c1)[C@H]1CCC2(CCCC2)N1` [Compound 56, (R)-(3-fluorophenyl)((R)-1-azaspiro[4.4]nonan-2-yl)-methanol] was over 75%.
Still for that read-out and setting: for `CC1(C)CC[C@H]([C@H](O)c2cccc(Cl)c2)N1` [Compound 58, (R)-(3-chlorophenyl)((R)-5,5-dimethylpyrrolidin-2-yl)-methanol] the value was 50 to 75%; for `CC(C)(C[C@H]1CC[C@H](NS(=O)(=O)C(F)(F)F)CC1)NC[C@H](O)c1cccc(F)c1` [Compound 30, 1,1,1-trifluoro-N-((trans)-4-(2-(((R)-2-(3-fluorophenyl)-2-hydroxyethyl)amino)-2-methylpropyl)cyclohexyl)-methanesulfonamide], over 75%.
On to `CO[C@H]1CC[C@H](C[C@H]2CC[C@H]([C@H](O)c3ccccc3F)N2)CC1` [Compound 48, (R)-(2-fluorophenyl)((2R,5R)-5-(((trans)-4-methoxycyclo-hexyl)methyl)pyrrolidin-2-yl)-methanol], for which the Emax at 10 µM is 50 to 75%.
Same read-out and setting: the value for `CNC(=O)N1CCC[C@@H](CC(C)(C)NC[C@H](O)c2cccc(F)c2)C1` [Compound 3, (S)-3-(2-(((R)-2-(3-fluorophenyl)-2-hydroxy-ethyl)amino)-2-methyl-propyl)-N-methylpiperidine-1-carboxamide] was over 75%; that for `CC(C)(C[C@H]1CC[C@H](C#N)CC1)NC[C@H](O)c1cccc(F)c1` [Compound 40, (trans)-4-(2-(((R)-2-(3-fluorophenyl)-2-hydroxy-ethyl)amino)-2-methyl-propyl)cyclohexane-1-carbonitrile] was 50 to 75%; that for `CN(C)C(=O)N1CCC[C@@H](CC(C)(C)NC[C@H](O)c2cncc(F)c2)C1` [Compound 2, (S)-3-(2-(((R)-2-(5-fluoro-pyridin-3-yl)-2-hydroxy-ethyl)amino)-2-methyl-propyl)-N,N-dimethyl-piperidine-1-carboxamide] was 50 to 75%.
The same measure, in the same setting: for `CC(C)CS(=O)(=O)N[C@H]1CC[C@H](CC(C)(C)NC[C@H](O)c2cncc(F)c2)CC1` [Compound 20, N-((trans)-4-(2-(((R)-2-(5-fluoropyridin-3-yl)-2-hydroxyethyl)amino)-2-methylpropyl)cyclohexyl)-2-methylpropane-1-sulfonamide] the value was over 75%.
Same read-out and setting: the value for `CC1(NC[C@H](O)c2cccc(O)c2)CCC1` [Compound 62, (R)-3-(1-hydroxy-2-((1-methylcyclobutyl)amino)-ethyl)phenol] was over 75%.
For `CCCCNCC(O)c1ccc(F)c(N)c1F` (stereo not shown) [Compound 67, 1-(3-amino-2,4-difluoro-phenyl)-2-(butylamino)ethan-1-ol], the Emax at 10 µM lay in the range of 50 to 75%.
The same measure, in the same setting: the value for `CC(C)(C[C@H]1CC[C@H](NS(=O)(=O)C(F)(F)F)CC1)NC[C@H](O)c1cncc(F)c1` [Compound 11, 1,1,1-trifluoro-N-((1R,4r)-4-(2-(((R)-2-(5-fluoropyridin-3-yl)-2-hydroxyethyl)amino)-2-methylpropyl)cyclohexyl)-methanesulfonamide] was over 75%; that for `CO[C@H]1CC[C@H](CC(C)(C)NC[C@H](O)c2ccc(F)c(N)c2F)CC1` [Compound 37, (R)-1-(3-amino-2,4-difluoro-phenyl)-2-((1-((trans)-4-methoxycyclohexyl)-2-methylpropan-2-yl)amino)-ethan-1-ol] was over 75%; that for `CC(C)CS(=O)(=O)N[C@H]1CC[C@@H](CC(C)(C)NC[C@H](O)c2cncc(F)c2)CC1` [Compound 14, N-((cis)-4-(2-(((R)-2-(5-fluoropyridin-3-yl)-2-hydroxyethyl)amino)-2-methylpropyl)cyclohexyl)-2-methylpropane-1-sulfonamide] was 50 to 75%.
Same read-out and setting: for `CCC[C@H](C)NC[C@H](O)c1cccc(O)c1` [Compound 68, 3-((R)-1-hydroxy-2-(((S)-pentan-2-yl)amino)ethyl)-phenol] the value was over 75%; for `O[C@H](c1cccc(F)c1)[C@H]1CC[C@@H](Cc2ccc(Cl)cc2)N1` [Compound 42, (R)-((2R,5S)-5-(4-chloro-benzyl)pyrrolidin-2-yl)(3-fluorophenyl)methanol], over 75%.
Same read-out and setting: the value for `CCCCNC[C@H](O)c1ccccc1F` [Compound 64, (R)-2-(butylamino)-1-(2-fluorophenyl)ethan-1-ol] was over 75%.
Take `CCCCS(=O)(=O)N[C@H]1CC[C@H](CC(C)(C)NC[C@H](O)c2cccc(F)c2)CC1` [Compound 13]: the Emax at 10 µM is over 75%.
